How the values were obtained:
[1] = tested on: Swiss 3T3 cells; test: DNA synthesis ([3H]thymidine incorporation) in parental and GFP-infected Swiss 3T3 cells; format: cell-based
Description: The effect of SPC and LPC on DNA synthesis was measured using [^3H] thymidine incorporation. Briefly, GPR4-ires-GFP- and GFP-Swiss 3T3 cells were plated in 96-well plates, serum-starved for 24 h, and treated with SPC, LPC, or other lipids in serum-free DMEM for 24 h. Cells were incubated with 0.75 μCi/ml [^3H]thymidine in serum-free DMEM for the last 18 h. Cells were harvested onto filter papers presoaked in 1% polyethylenimine using the automated cell harvester HARVEST 96. Incorporated [^3H]thymidine was counted in a 1450 Microbeta Trilux Liquid Scintillation and Luminescence Counter (Perkin-Elmer-Wallac, Inc.).

[2] = biological target: T1, GPR4 (Homo sapiens, UniProt P46093); test: Transwell cell migration of GPR4-transfected HEK293 cells; format: cell-based; settings: 0.2 μM
T1 construct: were used to generate full length GPR4, which was digested with EcoRI and Xba I and cloned into the pBs3HA vector; expressed in transfected cells
Description: To determine whether GPR4 and/or TDGA8 can mediate the LPC-induced cell migration, we transfected HEK293 cells with GPR4 or TDAG8. Cell migration was performed in Transwell apparatus. GPR4-transfected HEK293 cells, and TDAG8-transfected HEK293 cells migrated to the low-phase of the membrane and the lower chamber of the Transwell in response to SPC and LPC, used at 0.2 μM.

[3] = biological target: T2, TDAG8 (Homo sapiens, UniProt Q8IYL9); test: MAP kinase reporter system in TDAG8 co-transfected HEK293 cells; format: cell-based; settings: 1-5 μM
T2 construct: expressed in transfected cells
Description: To further explore the TDAG8-mediated cellular response to SPC, MAP kinase activation was examined using the MAP kinase reporter system from Stratagene.

[4] = biological target: T2, TDAG8; test: Binding of phospholipids to TDAG8
Description: To characterize the binding of SPC and LPC to GPR4 and TDAG8, we conducted radioligand binding assays. CHO cells were chosen for GPR4 binding assays, since HEK293 cells express relatively high levels of endogenous GPR4. CHO cells stably transfected with empty vector or GPR4 were serum starved for 20 h, then collected after exposure to 2 mM EDTA in PBS. The pelleted cells were stored at −80° C. until use. Binding assays were performed essentially as described previously (Xu et al. (2000) Nat Cell Biol 2, 261-267), except binding was performed at 4° C. Briefly, frozen cells (10^6 cells/ml) were homogenized in a binding buffer. Assays were performed in 96-well plates in triplicate with 100 μl cell homogenate (equivalent to 10^5 cells/well). Different amounts of [^3H]SPC or [^3H]16:0-LPC were added to the cell homogenates in 50 μl of binding buffer, in the presence or absence of cold SPC or 16:0-LPC, or other competitors. The plates were incubated at 4° C. for 120 min, unless otherwise indicated. Cell-bound [^3H]SPC or [^3H]LPC was collected onto a filter (Printed Filtermat A, Wallac, Gaithersburg, Md.) using an automated cell harvester (HARVESTER 96, Tomtec, Orange, Conn.). Specific binding was calculated by subtraction of nonspecific binding (binding detected in the presence of 100-fold excess unlabeled SPC or 16:0-LPC) from the total binding.
Using functional and binding assays, we have identified the ligands for TDAG8.

[5] = biological target: T1, GPR4; test: ERK MAP kinase activation (phospho-ERK Western blot) in GPR4-infected Swiss 3T3 cells; format: cell-based; settings: for concentration at which ERK activation was evident / time point at which ERK activation was evident: GPR4-infected Swiss 3T3 cells; for GPR4-dependent ERK activation (in words): GPR4-ires-GFP vs GFP Swiss 3T3 cells, SPC and LPC 100 nM
Summary of the method: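 Swiss 3T3 cells transduced with MSCV GPR4-ires-GFP or empty vector, FACS-sorted for GFP, serum-starved overnight, then stimulated with lipids in DMEM. Phospho-ERK1/2 detected by Western blot with ECL, normalised to total ERK; some cells pretreated with 100 ng/ml PTX for 12–16 h before SPC or LPC.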

[6] = biological target: T3, OGR1 (Homo sapiens, UniProt Q15743); test: MAP kinase reporter system in OGR1 co-transfected cells; format: cell-based
T3 construct: expressed in transfected cells
T3 sequence (Q15743 whole entry, species assumed): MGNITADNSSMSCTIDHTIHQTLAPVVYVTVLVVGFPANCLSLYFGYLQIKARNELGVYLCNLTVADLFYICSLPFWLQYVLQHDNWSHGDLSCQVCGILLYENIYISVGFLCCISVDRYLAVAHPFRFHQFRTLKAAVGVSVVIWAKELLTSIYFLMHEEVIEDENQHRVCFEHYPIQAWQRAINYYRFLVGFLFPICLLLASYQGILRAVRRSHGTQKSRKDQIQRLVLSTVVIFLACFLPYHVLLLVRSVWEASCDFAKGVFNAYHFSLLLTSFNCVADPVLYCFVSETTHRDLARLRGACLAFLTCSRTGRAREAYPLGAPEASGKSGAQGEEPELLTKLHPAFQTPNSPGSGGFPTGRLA

T2 sequence (Q8IYL9 whole entry): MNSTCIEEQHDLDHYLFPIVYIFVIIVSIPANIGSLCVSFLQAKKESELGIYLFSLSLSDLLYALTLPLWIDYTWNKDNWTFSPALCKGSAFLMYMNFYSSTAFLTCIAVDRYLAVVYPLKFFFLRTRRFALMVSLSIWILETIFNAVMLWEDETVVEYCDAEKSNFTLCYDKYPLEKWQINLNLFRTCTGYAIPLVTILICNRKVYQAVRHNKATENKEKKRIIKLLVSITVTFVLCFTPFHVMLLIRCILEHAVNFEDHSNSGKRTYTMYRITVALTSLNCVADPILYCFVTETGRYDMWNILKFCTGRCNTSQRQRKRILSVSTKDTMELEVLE
T1 sequence (P46093 whole entry): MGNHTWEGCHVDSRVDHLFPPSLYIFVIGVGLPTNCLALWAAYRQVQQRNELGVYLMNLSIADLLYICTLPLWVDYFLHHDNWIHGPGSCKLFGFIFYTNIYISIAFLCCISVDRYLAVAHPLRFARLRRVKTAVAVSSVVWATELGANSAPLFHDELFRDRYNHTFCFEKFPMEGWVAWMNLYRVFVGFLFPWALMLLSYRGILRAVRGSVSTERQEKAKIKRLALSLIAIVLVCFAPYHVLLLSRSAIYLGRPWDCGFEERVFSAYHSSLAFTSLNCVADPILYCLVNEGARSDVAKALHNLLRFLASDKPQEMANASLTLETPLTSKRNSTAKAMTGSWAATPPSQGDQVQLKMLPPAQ

Compound	DNA synthesis response (in words) ([1]; GFP-expressing cells)	cell migration in Transwell (in words) [2]	activation of p42/44 MAP kinase (reporter luciferase activity) [3]	increase of DNA synthesis ([1]; 3 μM, parental and GFP-infected cells)	binding to TDAG8 [4]	concentration at which ERK activation was evident [5]	time point at which ERK activation was evident [5] [min]	GPR4-dependent ERK activation (in words) [5]	MAP kinase activation (reporter) [6]
CCCCCCCCCCCCCCCC(=O)OC[C@@H](O)COP(=O)([O-])OCC[N+](C)(C)C [16:0-LPC]	did not respond significantly								
CCCCCCCCCCCCC/C=C/[C@@H](O)[C@@H](N)COP(=O)([O-])OCC[N+](C)(C)C [SPC, Sphingosylphosphorylcholine]		increased cell migration	induced activation of p42/44 MAP kinase	approximately 6.3 fold	able to bind to TDAG8	approximately 10 nM	1	enhanced ERK activation	only achieved by SPC
lysophosphatidylcholine [LPC]		increased cell migration	induced activation of p42/44 MAP kinase		able to bind to TDAG8	~100 nM	5	enhanced ERK activation	weakly inhibitory

Source: patent US20020107197A1, “Ligands for G protein coupled receptors and methods of using them” (priority 2000, published 2002)
